Experiments:
Assay type in all cases: in vivo
[1] = test system: Alopecurus myosuroides (ALOMY); experiment: Test 1A glasshouse assay, pre-emergence herbicidal activity; conditions: 312 h, 13 days after application, read-out: Pre-emergence herbicidal activity (% phytotoxicity) ALOMY
Procedure: (§1) Seeds of a variety of test species were sown in standard soil in pots. After cultivation for one day (pre-emergence) or after 8 days cultivation (post-emergence) under controlled conditions in a glasshouse (at 24/16° C., day/night; 14 hours light; 65% humidity), the plants were sprayed with an aqueous spray solution derived from the formulation of the technical active ingredient in acetone/water (50:50) solution containing 0.5% Tween 20 (polyoxyethelyene sorbitan monolaurate, CAS RN 9005-64-5). The test plants were then grown under controlled conditions in a glasshouse (at 24/16° C., day/night; 14 hours light; 65% humidity) and watered twice daily. 13 days after application of the test herbicide, for pre- and post-emergence, the test was evaluated visually for percentage phytotoxicity to the plant (where 100%=total damage to plant; 0%=no damage to plant).
(§2) Test plants: Lolium perenne (LOLPE), Alopecurus myosuroides (ALOMY), Echinochloa crus-galli (ECHCG), and Avena fatua (AVEFA); these are all grassy monocotyledonous weeds.

Lolium perenne (LOLPE) [2] = experiment: as above; conditions: 312 h, 13 days after application, read-out: Pre-emergence herbicidal activity (% phytotoxicity) LOLPE
Procedure: as §1, §2

[3] = test system: Echinochloa crus-galli (ECHCG); experiment: as above; conditions: 312 h, 13 days after application, read-out: Pre-emergence herbicidal activity (% phytotoxicity) ECHCG
Procedure: as §1, §2

Avena fatua (AVEFA) [4] = experiment: as above; conditions: 312 h, 13 days after application, read-out: Pre-emergence herbicidal activity (% phytotoxicity) AVEFA
Procedure: as §1, §2

[5] = test system: Alopecurus myosuroides (ALOMY); experiment: Test 1A glasshouse assay, post-emergence herbicidal activity; conditions: Alopecurus myosuroides, 312 h, application rate 250 g/ha, 13 days after application, visual (100%=total damage; 0%=no damage), read-out: Post-emergence Herbicidal Activity (% Phytotoxicity) ALOMY
How it was run: (§3)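 Test species were sown in pots of standard soil and cultivated for 8 days at 24/16 °C (day/night) with 14 h light and 65% humidity. Plants were next sprayed with the formulated active ingredient (acetone/water 50:50, 0.5% Tween 20). Damage was rated visually as % phytotoxicity 13 days later.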

Lolium perenne (LOLPE) [6] = experiment: as above; conditions: Lolium perenne, 312 h, application rate 250 g/ha, 13 days after application, visual (100%=total damage; 0%=no damage), read-out: Post-emergence Herbicidal Activity (% Phytotoxicity) LOLPE
How it was run: as §3

[7] = test system: Echinochloa crus-galli (ECHCG); experiment: as above; conditions: Echinochloa crus-galli, 312 h, application rate 250 g/ha, 13 days after application, visual (100%=total damage; 0%=no damage), read-out: Post-emergence Herbicidal Activity (% Phytotoxicity) ECHCG
How it was run: as §3

Avena fatua (AVEFA) [8] = experiment: as above; conditions: Avena fatua, 312 h, application rate 250 g/ha, 13 days after application, visual (100%=total damage; 0%=no damage), read-out: Post-emergence Herbicidal Activity (% Phytotoxicity) AVEFA
How it was run: as §3

Poa annua (POAAN) = experiment: Test 1B glasshouse assay, post-emergence herbicidal activity against grassy weeds; conditions: 14 DAA
How it was run: (§4)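 Herbicide applied post-emergence at rates such as 60 g/ha (±50 g/ha cloquintocet-mexyl) or 90 and 120 g/ha (with safener), rates varying per compound. Plants kept at 22/16 °C, watered twice daily; percentage phytotoxicity scored visually after 14 days.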

[9] = test system: Alopecurus myosuroides (ALOMY); experiment: as above; conditions: 14 DAA
How it was run: as §4

Setaria viridis (SETVI) = experiment: as above; conditions: 14 DAA
How it was run: as §4

[10] = test system: Lolium multiflorum (LOLMU); experiment: as above; conditions: 14 DAA
How it was run: as §4

Avena fatua (AVEFA) [11] = experiment: as above; conditions: 14 DAA
How it was run: as §4

Spring Wheat “Freya” = experiment: Test 1B glasshouse assay, post-emergence herbicidal activity against cereal crops
Winter Wheat “Hereward” = experiment: as above
How it was run: (§5)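 Visual percentage damage (100% = total, 0% = none) read 14 days after application, averaged over two replicates. Plants grown 14 days at 22/16 °C day/night before post-emergence spraying of unformulated compound (IF50/acetone, 0.5% v/v Adigor). Rates usually 60–120 g/ha; cloquintocet-mexyl 50 g/ha co-applied where stated.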

[12] = test system: Spring Barley “Harrington”; experiment: as above
How it was run: as §5

Winter Barley “Suzuka” = experiment: as above
How it was run: as §5

[13] = 30 g/ha herbicide, 50 g/ha cloquintocet-mexyl
[14] = 45 g/ha herbicide, 50 g/ha cloquintocet-mexyl
[15] = 60 g/ha herbicide, 0 g/ha cloquintocet-mexyl
[16] = 60 g/ha herbicide, 50 g/ha cloquintocet-mexyl
[17] = herbicide 30 g/ha, cloquintocet-mexyl 50 g/ha
[18] = herbicide 45 g/ha, cloquintocet-mexyl 50 g/ha
[19] = herbicide 60 g/ha, cloquintocet-mexyl 0 g/ha
[20] = herbicide 60 g/ha, cloquintocet-mexyl 50 g/ha

## Cc1cc(C)c(C2C(=O)CC(CCNC(=O)c3ccccc3)C2=O)c(C)c1 (stereo not drawn) [Compound A1, N-[2-[2,4-dioxo-3-(2,4,6-trimethylphenyl)cyclopentyl]ethyl]-benzamide]
[1]; 1000 g/ha
  inhibition at 1000 g/ha: 90%
Lolium perenne (LOLPE) [2]; 1000 g/ha
  inhibition at 1000 g/ha: 100%
[3]; 1000 g/ha
  inhibition at 1000 g/ha: 100%
Avena fatua (AVEFA) [4]; 1000 g/ha
  inhibition at 1000 g/ha: 70%
[5]
  pest or weed control at 250 g/ha: 80%
Lolium perenne (LOLPE) [6]
  pest or weed control at 250 g/ha: 100%
[7]
  pest or weed control at 250 g/ha: 100%
Avena fatua (AVEFA) [8]
  pest or weed control at 250 g/ha: 90%

## Cc1cc(C)c(C2C(=O)CC(CCNC(=O)C(C)(C)C)C2=O)c(C)c1 (stereo not drawn) [Compound A2]
[1]
  inhibition at 250 g/ha: 90%
Lolium perenne (LOLPE) [2]
  inhibition at 250 g/ha: 100%
[3]
  inhibition at 250 g/ha: 70%
Avena fatua (AVEFA) [4]
  inhibition at 250 g/ha: 70%
[5]
  pest or weed control at 250 g/ha: 90%
Lolium perenne (LOLPE) [6]
  pest or weed control at 250 g/ha: 100%
[7]
  pest or weed control at 250 g/ha: 80%
Avena fatua (AVEFA) [8]
  pest or weed control at 250 g/ha: 80%

## Cc1cc(C)c(C2C(=O)CC(CCNC(=O)c3ccccn3)C2=O)c(C)c1 (stereo not drawn) [Compound A3]
[1]
  inhibition at 250 g/ha: 90%
Lolium perenne (LOLPE) [2]
  inhibition at 250 g/ha: 100%
[3]
  inhibition at 250 g/ha: 100%
Avena fatua (AVEFA) [4]
  inhibition at 250 g/ha: 90%
[5]
  pest or weed control at 250 g/ha: 90%
Lolium perenne (LOLPE) [6]
  pest or weed control at 250 g/ha: 100%
[7]
  pest or weed control at 250 g/ha: 100%
Avena fatua (AVEFA) [8]
  pest or weed control at 250 g/ha: 100%

## Cc1cc(C)c(C2C(=O)CC(CCNC(=O)C3CCCCC3)C2=O)c(C)c1 (stereo not drawn) [Compound A13]
[1]
  inhibition at 250 g/ha: 80%
Lolium perenne (LOLPE) [2]
  inhibition at 250 g/ha: 90%
[3]
  inhibition at 250 g/ha: 100%
Avena fatua (AVEFA) [4]
  inhibition at 250 g/ha: 80%
[5]
  pest or weed control at 250 g/ha: 70%
Lolium perenne (LOLPE) [6]
  pest or weed control at 250 g/ha: 90%
[7]
  pest or weed control at 250 g/ha: 100%
Avena fatua (AVEFA) [8]
  pest or weed control at 250 g/ha: 70%

## Cc1cc(C)c(C2C(=O)CC(CCNC(=O)c3ccc(F)cc3)C2=O)c(C)c1 (stereo not drawn) [Compound A19]
[1]
  inhibition at 250 g/ha: 90%
Lolium perenne (LOLPE) [2]
  inhibition at 250 g/ha: 100%
[3]
  inhibition at 250 g/ha: 100%
Avena fatua (AVEFA) [4]
  inhibition at 250 g/ha: 50%
[5]
  pest or weed control at 250 g/ha: 80%
Lolium perenne (LOLPE) [6]
  pest or weed control at 250 g/ha: 100%
[7]
  pest or weed control at 250 g/ha: 100%
Avena fatua (AVEFA) [8]
  pest or weed control at 250 g/ha: 70%

## Cc1cc(-c2ccc(F)cc2)cc(C)c1C1C(=O)CC(CCNC(=O)c2ccccn2)C1=O (stereo not drawn) [Compound A32]
[1]
  inhibition at 250 g/ha: 100%
Lolium perenne (LOLPE) [2]
  inhibition at 250 g/ha: 100%
[3]
  inhibition at 250 g/ha: 100%
Avena fatua (AVEFA) [4]
  inhibition at 250 g/ha: 80%
[5]
  pest or weed control at 250 g/ha: 90%
Lolium perenne (LOLPE) [6]
  pest or weed control at 250 g/ha: 100%
[7]
  pest or weed control at 250 g/ha: 100%
Avena fatua (AVEFA) [8]
  pest or weed control at 250 g/ha: 100%

## CC#Cc1cc(C)c(C2C(=O)CC(CCNC(=O)c3ccccn3)C2=O)c(C)c1 (stereo not drawn) [Compound A33]
[1]
  inhibition at 250 g/ha: 90%
Lolium perenne (LOLPE) [2]
  inhibition at 250 g/ha: 100%
[3]
  inhibition at 250 g/ha: 100%
Avena fatua (AVEFA) [4]
  inhibition at 250 g/ha: 80%
[5]
  pest or weed control at 250 g/ha: 90%
Lolium perenne (LOLPE) [6]
  pest or weed control at 250 g/ha: 100%
[7]
  pest or weed control at 250 g/ha: 100%
Avena fatua (AVEFA) [8]
  pest or weed control at 250 g/ha: 100%

## Cc1cc(C)c(C2C(=O)C[C@H](CCNC(=O)c3cc(Cl)ccn3)C2=O)c(C)c1 (stereo partly drawn) [Compound A128]
Poa annua (POAAN); [13]
  Post-emergence herbicidal activity, percentage phytotoxicity, POAAN: 0%
Poa annua (POAAN); [14]
  Post-emergence herbicidal activity, percentage phytotoxicity, POAAN: 0%
Poa annua (POAAN); [15]
  Post-emergence herbicidal activity, percentage phytotoxicity, POAAN: 5%
Poa annua (POAAN); [16]
  Post-emergence herbicidal activity, percentage phytotoxicity, POAAN: 0%
[9]; [13]
  Post-emergence herbicidal activity, percentage phytotoxicity, ALOMY: 3%
[9]; [14]
  Post-emergence herbicidal activity, percentage phytotoxicity, ALOMY: 25%
[9]; [15]
  Post-emergence herbicidal activity, percentage phytotoxicity, ALOMY: 48%
[9]; [16]
  Post-emergence herbicidal activity, percentage phytotoxicity, ALOMY: 35%
Setaria viridis (SETVI); [13]
  Post-emergence herbicidal activity, percentage phytotoxicity, SETVI: 23%
Setaria viridis (SETVI); [14]
  Post-emergence herbicidal activity, percentage phytotoxicity, SETVI: 43%
Setaria viridis (SETVI); [15]
  Post-emergence herbicidal activity, percentage phytotoxicity, SETVI: 55%
Setaria viridis (SETVI); [16]
  Post-emergence herbicidal activity, percentage phytotoxicity, SETVI: 63%
[10]; [13]
  Post-emergence herbicidal activity, percentage phytotoxicity, LOLMU: 43%
[10]; [14]
  Post-emergence herbicidal activity, percentage phytotoxicity, LOLMU: 63%
[10]; [15]
  Post-emergence herbicidal activity, percentage phytotoxicity, LOLMU: 85%
[10]; [16]
  Post-emergence herbicidal activity, percentage phytotoxicity, LOLMU: 78%
Avena fatua (AVEFA) [11]; [13]
  Post-emergence herbicidal activity, percentage phytotoxicity, AVEFA: 0%
Avena fatua (AVEFA) [11]; [14]
  Post-emergence herbicidal activity, percentage phytotoxicity, AVEFA: 3%
Avena fatua (AVEFA) [11]; [15]
  Post-emergence herbicidal activity, percentage phytotoxicity, AVEFA: 18%
Avena fatua (AVEFA) [11]; [16]
  Post-emergence herbicidal activity, percentage phytotoxicity, AVEFA: 10%
Spring Wheat “Freya”; [17]
  Percentage Phytotoxicity Spring Wheat “Freya”: 3%
Spring Wheat “Freya”; [18]
  Percentage Phytotoxicity Spring Wheat “Freya”: 0%
Spring Wheat “Freya”; [19]
  Percentage Phytotoxicity Spring Wheat “Freya”: 7%
Spring Wheat “Freya”; [20]
  Percentage Phytotoxicity Spring Wheat “Freya”: 3%
Winter Wheat “Hereward”; [17]
  Percentage Phytotoxicity Winter Wheat “Hereward”: 0%
Winter Wheat “Hereward”; [18]
  Percentage Phytotoxicity Winter Wheat “Hereward”: 0%
Winter Wheat “Hereward”; [19]
  Percentage Phytotoxicity Winter Wheat “Hereward”: 8%
Winter Wheat “Hereward”; [20]
  Percentage Phytotoxicity Winter Wheat “Hereward”: 0%
[12]; [17]
  Percentage Phytotoxicity Spring Barley “Harrington”: 0%
[12]; [18]
  Percentage Phytotoxicity Spring Barley “Harrington”: 0%
[12]; [19]
  Percentage Phytotoxicity Spring Barley “Harrington”: 48%
[12]; [20]
  Percentage Phytotoxicity Spring Barley “Harrington”: 0%
Winter Barley “Suzuka”; [17]
  Percentage Phytotoxicity Winter Barley “Suzuka”: 0%
Winter Barley “Suzuka”; [18]
  Percentage Phytotoxicity Winter Barley “Suzuka”: 0%
Winter Barley “Suzuka”; [19]
  Percentage Phytotoxicity Winter Barley “Suzuka”: 18%
Winter Barley “Suzuka”; [20]
  Percentage Phytotoxicity Winter Barley “Suzuka”: 0%

## Cc1cc(C)c(C2C(=O)CC(CCNC(=O)c3c(Cl)c(C)nn3C)C2=O)c(C)c1 (stereo not drawn) [Compound A145]
[1]
  inhibition at 250 g/ha: 90%
Lolium perenne (LOLPE) [2]
  inhibition at 250 g/ha: 100%
[3]
  inhibition at 250 g/ha: 90%
Avena fatua (AVEFA) [4]
  inhibition at 250 g/ha: 40%
[5]
  pest or weed control at 250 g/ha: 100%
Lolium perenne (LOLPE) [6]
  pest or weed control at 250 g/ha: 90%
[7]
  pest or weed control at 250 g/ha: 90%
Avena fatua (AVEFA) [8]
  pest or weed control at 250 g/ha: 90%

## Cc1cc(C)c(C2C(=O)CC(CCNC(=O)c3c(Cl)nn(C)c3Cl)C2=O)c(C)c1 (stereo not drawn) [Compound A159]
[1]
  inhibition at 250 g/ha: 90%
Lolium perenne (LOLPE) [2]
  inhibition at 250 g/ha: 100%
[3]
  inhibition at 250 g/ha: 100%
Avena fatua (AVEFA) [4]
  inhibition at 250 g/ha: 80%
[5]
  pest or weed control at 250 g/ha: 100%
Lolium perenne (LOLPE) [6]
  pest or weed control at 250 g/ha: 100%
[7]
  pest or weed control at 250 g/ha: 90%
Avena fatua (AVEFA) [8]
  pest or weed control at 250 g/ha: 90%
